Reference: the NIST ThermoML archive (doi:10.1021/acs.jced.8b00554)
Numbers after ± are expanded uncertainties.

Experiment: xn = mol fraction of the nth substance listed
Conditions: Liquid, Vibrating tube method

CCCCCCCC [octane] + CCCO
mass density [kg/m3]
Conditions | 323.15 K | 333.15 K
100 kPa, x2 = 0.1631 | – | 675.2 ± 4.3
100 kPa, x2 = 0.2111 | – | 677.49 ± 4.3
100 kPa, x2 = 0.3158 | – | 683.44 ± 4.4
100 kPa, x2 = 0.4411 | – | 692.56 ± 4.4
100 kPa, x2 = 0.7301 | – | 721.13 ± 4.6
100 kPa, x2 = 0.8823 | – | 744.98 ± 4.8
1000 kPa, x2 = 0.2111 | – | 678.54 ± 4.3
1000 kPa, x2 = 0.3158 | – | 684.58 ± 4.4
1010 kPa, x2 = 0.1631 | – | 676.35 ± 4.3
1010 kPa, x2 = 0.4411 | – | 694.32 ± 4.5
1010 kPa, x2 = 0.8823 | – | 745.82 ± 4.8
1020 kPa, x2 = 0.7301 | – | 722.21 ± 4.6
2010 kPa, x2 = 0.1631 | – | 677.44 ± 4.3
2010 kPa, x2 = 0.2111 | – | 679.63 ± 4.3
2010 kPa, x2 = 0.3158 | – | 685.64 ± 4.4
2010 kPa, x2 = 0.4411 | – | 695.36 ± 4.5
2010 kPa, x2 = 0.7301 | – | 723.26 ± 4.6
2010 kPa, x2 = 0.8823 | – | 746.82 ± 4.8
3000 kPa, x2 = 0.2111 | – | 680.7 ± 4.4
3000 kPa, x2 = 0.3158 | – | 686.7 ± 4.4
3010 kPa, x2 = 0.1631 | – | 678.49 ± 4.3
3010 kPa, x2 = 0.7301 | – | 724.3 ± 4.6
3020 kPa, x2 = 0.4411 | – | 696.43 ± 4.5
3020 kPa, x2 = 0.8823 | – | 747.84 ± 4.8
4000 kPa, x2 = 0.3158 | – | 687.78 ± 4.4
4000 kPa, x2 = 0.4411 | – | 697.47 ± 4.5
4000 kPa, x2 = 0.7301 | – | 725.32 ± 4.7
4010 kPa, x2 = 0.2111 | – | 681.76 ± 4.4
4010 kPa, x2 = 0.8823 | – | 748.84 ± 4.8
4020 kPa, x2 = 0.1631 | – | 679.56 ± 4.3
5000 kPa, x2 = 0.8823 | – | 749.83 ± 4.8
5010 kPa, x2 = 0.2111 | – | 682.8 ± 4.4
5020 kPa, x2 = 0.1631 | – | 680.6 ± 4.4
5020 kPa, x2 = 0.3158 | – | 688.8 ± 4.4
5020 kPa, x2 = 0.4411 | – | 698.53 ± 4.5
5020 kPa, x2 = 0.7301 | – | 726.33 ± 4.7
6000 kPa, x2 = 0.2111 | – | 683.81 ± 4.4
6010 kPa, x2 = 0.3158 | – | 689.87 ± 4.4
6010 kPa, x2 = 0.4411 | – | 699.54 ± 4.5
6010 kPa, x2 = 0.7301 | – | 727.35 ± 4.7
6010 kPa, x2 = 0.8823 | – | 750.8 ± 4.8
6020 kPa, x2 = 0.1631 | – | 681.62 ± 4.4
7000 kPa, x2 = 0.1631 | – | 682.67 ± 4.4
7000 kPa, x2 = 0.2111 | – | 684.85 ± 4.4
7000 kPa, x2 = 0.3158 | – | 690.9 ± 4.4
7010 kPa, x2 = 0.4411 | – | 700.57 ± 4.5
7010 kPa, x2 = 0.8823 | – | 751.79 ± 4.8
7020 kPa, x2 = 0.7301 | – | 728.39 ± 4.7
8000 kPa, x2 = 0.8823 | – | 752.76 ± 4.8
8010 kPa, x2 = 0.1631 | – | 683.7 ± 4.4
8010 kPa, x2 = 0.7301 | – | 729.39 ± 4.7
8020 kPa, x2 = 0.2111 | – | 685.89 ± 4.4
8020 kPa, x2 = 0.3158 | – | 691.91 ± 4.4
8020 kPa, x2 = 0.4411 | – | 701.57 ± 4.5
9000 kPa, x2 = 0.4411 | – | 702.6 ± 4.5
9010 kPa, x2 = 0.1631 | – | 684.68 ± 4.4
9010 kPa, x2 = 0.2111 | – | 686.89 ± 4.4
9010 kPa, x2 = 0.3158 | – | 692.93 ± 4.4
9010 kPa, x2 = 0.7301 | – | 730.37 ± 4.7
9010 kPa, x2 = 0.8823 | – | 753.69 ± 4.8
10000 kPa, x2 = 0.2111 | – | 687.87 ± 4.4
10000 kPa, x2 = 0.8823 | – | 754.64 ± 4.8
10010 kPa, x2 = 0.3158 | 702.83 ± 4.5 | 693.93 ± 4.5
10010 kPa, x2 = 0.4411 | 711.7 ± 4.6 | –
10010 kPa, x2 = 0.7301 | – | 731.35 ± 4.7
10010 kPa, x2 = 0.8823 | 763.66 ± 4.9 | –
10020 kPa, x2 = 0.1631 | – | 685.68 ± 4.4
10020 kPa, x2 = 0.4411 | – | 703.57 ± 4.5
11000 kPa, x2 = 0.1631 | 695.13 ± 4.5 | –
11000 kPa, x2 = 0.3158 | – | 694.92 ± 4.5
11010 kPa, x2 = 0.1631 | – | 686.66 ± 4.4
11010 kPa, x2 = 0.2111 | 697.62 ± 4.5 | –
11010 kPa, x2 = 0.3158 | 703.75 ± 4.5 | –
11010 kPa, x2 = 0.4411 | 712.61 ± 4.6 | 704.56 ± 4.5
11010 kPa, x2 = 0.7301 | 741.5 ± 4.8 | 732.33 ± 4.7
11010 kPa, x2 = 0.8823 | 764.53 ± 4.9 | 755.6 ± 4.8
11020 kPa, x2 = 0.2111 | – | 688.87 ± 4.4
12000 kPa, x2 = 0.2111 | – | 689.87 ± 4.4
12000 kPa, x2 = 0.3158 | 704.66 ± 4.5 | –
12000 kPa, x2 = 0.4411 | – | 705.54 ± 4.5
12010 kPa, x2 = 0.7301 | 742.41 ± 4.8 | –
12010 kPa, x2 = 0.8823 | 765.37 ± 4.9 | 756.54 ± 4.8
12020 kPa, x2 = 0.1631 | 696.03 ± 4.5 | 687.66 ± 4.4
12020 kPa, x2 = 0.2111 | 698.52 ± 4.5 | –
12020 kPa, x2 = 0.3158 | – | 695.9 ± 4.5
12020 kPa, x2 = 0.4411 | 713.53 ± 4.6 | –
12020 kPa, x2 = 0.7301 | – | 733.28 ± 4.7
13000 kPa, x2 = 0.8823 | 766.25 ± 4.9 | 757.44 ± 4.8
13010 kPa, x2 = 0.2111 | 699.43 ± 4.5 | –
13010 kPa, x2 = 0.3158 | – | 696.87 ± 4.5
13010 kPa, x2 = 0.4411 | 714.42 ± 4.6 | –
13010 kPa, x2 = 0.7301 | 743.29 ± 4.8 | –
13020 kPa, x2 = 0.1631 | 696.94 ± 4.5 | 688.62 ± 4.4
13020 kPa, x2 = 0.2111 | – | 690.84 ± 4.4
13020 kPa, x2 = 0.3158 | 705.56 ± 4.5 | –
13020 kPa, x2 = 0.4411 | – | 706.46 ± 4.5
13020 kPa, x2 = 0.7301 | – | 734.24 ± 4.7
14010 kPa, x2 = 0.1631 | 697.82 ± 4.5 | –
14010 kPa, x2 = 0.2111 | 700.32 ± 4.5 | 691.78 ± 4.4
14010 kPa, x2 = 0.3158 | 706.45 ± 4.5 | 697.84 ± 4.5
14010 kPa, x2 = 0.4411 | 715.31 ± 4.6 | 707.42 ± 4.5
14010 kPa, x2 = 0.8823 | 767.11 ± 4.9 | 758.35 ± 4.9
14020 kPa, x2 = 0.1631 | – | 689.54 ± 4.4
14020 kPa, x2 = 0.7301 | 744.18 ± 4.8 | 735.17 ± 4.7
15000 kPa, x2 = 0.1631 | – | 690.49 ± 4.4
15000 kPa, x2 = 0.2111 | – | 692.73 ± 4.4
15000 kPa, x2 = 0.7301 | 745.04 ± 4.8 | –
15000 kPa, x2 = 0.8823 | 767.94 ± 4.9 | –
15010 kPa, x2 = 0.1631 | 698.72 ± 4.5 | –
15010 kPa, x2 = 0.2111 | 701.21 ± 4.5 | –
15010 kPa, x2 = 0.4411 | – | 708.36 ± 4.5
15020 kPa, x2 = 0.3158 | 707.35 ± 4.5 | 698.76 ± 4.5
15020 kPa, x2 = 0.4411 | 716.17 ± 4.6 | –
15020 kPa, x2 = 0.7301 | – | 736.09 ± 4.7
15020 kPa, x2 = 0.8823 | – | 759.26 ± 4.9
16000 kPa, x2 = 0.1631 | – | 691.42 ± 4.4
16000 kPa, x2 = 0.3158 | 708.22 ± 4.5 | –
16000 kPa, x2 = 0.4411 | – | 709.26 ± 4.5
16000 kPa, x2 = 0.7301 | 745.87 ± 4.8 | –
16010 kPa, x2 = 0.1631 | 699.58 ± 4.5 | –
16010 kPa, x2 = 0.2111 | – | 693.66 ± 4.5
16010 kPa, x2 = 0.3158 | – | 699.72 ± 4.5
16010 kPa, x2 = 0.4411 | 717.04 ± 4.6 | –
16010 kPa, x2 = 0.8823 | 768.77 ± 4.9 | 760.14 ± 4.9
16020 kPa, x2 = 0.2111 | 702.08 ± 4.5 | –
16020 kPa, x2 = 0.7301 | – | 737.02 ± 4.7
17000 kPa, x2 = 0.1631 | 700.41 ± 4.5 | –
17010 kPa, x2 = 0.2111 | 702.95 ± 4.5 | 694.6 ± 4.5
17010 kPa, x2 = 0.3158 | 709.05 ± 4.5 | 700.63 ± 4.5
17010 kPa, x2 = 0.4411 | 717.88 ± 4.6 | 710.16 ± 4.6
17010 kPa, x2 = 0.7301 | – | 737.93 ± 4.7
17020 kPa, x2 = 0.1631 | – | 692.33 ± 4.4
17020 kPa, x2 = 0.7301 | 746.73 ± 4.8 | –
17020 kPa, x2 = 0.8823 | 769.6 ± 4.9 | 761.01 ± 4.9
18000 kPa, x2 = 0.1631 | 701.27 ± 4.5 | 693.25 ± 4.5
18000 kPa, x2 = 0.2111 | 703.77 ± 4.5 | –
18010 kPa, x2 = 0.3158 | 709.93 ± 4.5 | 701.51 ± 4.5
18010 kPa, x2 = 0.4411 | 718.73 ± 4.6 | 711.06 ± 4.6
18010 kPa, x2 = 0.7301 | 747.56 ± 4.8 | 738.78 ± 4.7
18010 kPa, x2 = 0.8823 | 770.4 ± 4.9 | 761.87 ± 4.9
18020 kPa, x2 = 0.2111 | – | 695.49 ± 4.5
19000 kPa, x2 = 0.1631 | – | 694.12 ± 4.5
19000 kPa, x2 = 0.3158 | – | 702.41 ± 4.5
19000 kPa, x2 = 0.7301 | – | 739.68 ± 4.7
19000 kPa, x2 = 0.8823 | – | 762.72 ± 4.9
19010 kPa, x2 = 0.1631 | 702.08 ± 4.5 | –
19010 kPa, x2 = 0.2111 | 704.61 ± 4.5 | 696.36 ± 4.5
19010 kPa, x2 = 0.3158 | 710.75 ± 4.6 | –
19010 kPa, x2 = 0.4411 | 719.58 ± 4.6 | –
19010 kPa, x2 = 0.7301 | 748.4 ± 4.8 | –
19020 kPa, x2 = 0.4411 | – | 711.94 ± 4.6
19020 kPa, x2 = 0.8823 | 771.2 ± 4.9 | –
20000 kPa, x2 = 0.1631 | – | 694.96 ± 4.5
20000 kPa, x2 = 0.2111 | – | 697.38 ± 4.5
20010 kPa, x2 = 0.1631 | 702.9 ± 4.5 | –
20010 kPa, x2 = 0.2111 | 705.43 ± 4.5 | –
20010 kPa, x2 = 0.3158 | – | 703.29 ± 4.5
20010 kPa, x2 = 0.4411 | 720.41 ± 4.6 | –
20010 kPa, x2 = 0.7301 | 749.2 ± 4.8 | 740.54 ± 4.8
20010 kPa, x2 = 0.8823 | 772.02 ± 5 | 763.55 ± 4.9
20020 kPa, x2 = 0.3158 | 711.56 ± 4.6 | –
20020 kPa, x2 = 0.4411 | – | 711.91 ± 4.6
